We go through eleven compounds from patent US11718620B2, “Method for treating a cancer mediated by abnormality of multi-kinases” (TransThera Sciences (Nanjing), Inc., priority 2016, dated 2023).

One series concerns the target T1, Aurora A (Homo sapiens, UniProt O14965).
T1 sequence (O14965 1-403): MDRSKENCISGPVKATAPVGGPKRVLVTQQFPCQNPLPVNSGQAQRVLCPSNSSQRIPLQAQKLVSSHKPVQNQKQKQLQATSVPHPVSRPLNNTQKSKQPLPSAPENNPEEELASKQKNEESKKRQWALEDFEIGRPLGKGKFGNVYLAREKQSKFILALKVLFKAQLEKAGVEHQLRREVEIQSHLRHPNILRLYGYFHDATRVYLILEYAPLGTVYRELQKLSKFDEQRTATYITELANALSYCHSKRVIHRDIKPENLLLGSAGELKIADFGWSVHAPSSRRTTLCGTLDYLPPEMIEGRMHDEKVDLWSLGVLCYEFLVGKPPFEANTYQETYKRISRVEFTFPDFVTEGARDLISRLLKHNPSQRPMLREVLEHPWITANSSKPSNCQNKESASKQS
As to the kind of experiment: Aurora A enzymatic activity test, FAM-labeled peptide, Caliper. Type of series: biochemical. To be noted: FAM-labeled peptide substrate, read-out: Kinase-inhibiting activity IC50 Aurora A. On the procedure: (§1) Test samples: Compounds in the present invention (the sequence numbers and structures thereof are shown in Table 1), dilution concentration: 0.03 μM-3 μM, a total of 10 concentration gradients.
(§2) Test method: enzymatic activity tests of Aurora kinase (including Aurora A and Aurora B) and VEGFR2 (KDR) were performed using a multi-function microplate reader.
(§3) a) 96-well plates, 10 dose groups, 3-fold serial dilutions, each well was added with DMSO, maximal concentration of 500 μM (50-fold compound).
(§4) b) 384-well plates, diluted with 1× kinase buffer (50 mM HEPES, pH 7.5; 0.0015% Brij-35; 2 mM DTT), each well containing 5× compound dissolved in 5 μL of 10% DMSO. Each well of the negative control contains 5 μL of 1× kinase buffer containing 10% DMSO.
(§5) Aurora A, Aurora B and KDR were dissolved in 1× kinase buffer and prepared as a 2.5× enzyme solution. After the compound in various concentrations was reacted with 2.5× enzyme solution at room temperature for 10 min, the FAM-labeled peptide substrate and ATP were added to initiate reaction. After incubation for 40 minutes, 25 μL of terminal solution (100 mM HEPES, pH 7.5; 0.015% Brij-35; 0.2% Coating Reagent #3; 50 mM EDTA) was added to stop the reaction, and the final data were read by Caliper.

In a further series the target is Aurora B (Homo sapiens, UniProt Q96GD4). Put plainly: Aurora B enzymatic activity test, FAM-labeled peptide, Caliper. The class given is biochemical. The conditions noted are these: FAM-labeled peptide substrate, read-out: Kinase-inhibiting activity IC50 Aurora B. The protocol: as §1, §2, §3, §4, §5
For a further series, the target named is KDR(VEGFR2) (Homo sapiens, UniProt P35968). As to the kind of experiment: KDR enzymatic activity test, FAM-labeled peptide, Caliper. Type of series: biochemical. The conditions noted are these: FAM-labeled peptide substrate, read-out: Kinase-inhibiting activity IC50 KDR(VEGFR2). On the procedure: as §1, §2, §3, §4, §5
Series [1] concerns BT-549 breast cancer cells. Put plainly: Cell proliferation, Cell Titer-Glo. The class given is cell-based. To be noted: Homo sapiens, 72 hours, read-out: Cellular inhibitory activity IC50 BT-549. The protocol:
(§6) Test method: The effect of compounds on cell proliferation of different cell lines was examined by Cell Titer-Glo method.
(§7) Each cell line was inoculated into a 96-well plate one day in advance, and after overnight incubation, drugs in different concentrations were added to a final concentration of 0-10000 nM, 3-5 folds dilution, for a total of 10 concentration points. After incubation for 72 hours, the mixture was added with Cell titer-Glo reagent equilibrated at room temperature, and shaken to incubation for 10 min, and then allowed to stand at room temperature for 2 min to stabilize the light signal. The multi-function microplate reader was used to read data from each well and analyze it.

The subject of series [2] is D4475 breast cancer cells. Put plainly: Cell proliferation, Cell Titer-Glo. The class given is cell-based. The conditions noted are these: 72 hours, read-out: Cellular inhibitory activity IC50 D4475. On the procedure: as §6, §7
In general terms: Cellular ATP, detected with luciferase, serves as a proxy for viable cell number.

For the next series, the system named is A549 Lung cancer cells. Put plainly: Cell proliferation, Cell Titer-Glo. Type of series: cell-based. To be noted: Homo sapiens, 72 hours, read-out: Cellular inhibitory activity IC50 A549. The protocol: as §6, §7
Series [3] deals with MDA-MB-468 breast cancer cells. Put plainly: Cell proliferation, Cell Titer-Glo. To be noted: Homo sapiens, 72 hours, read-out: Cellular inhibitory activity IC50 MDA-MB-468. Type of series: cell-based. On the procedure:
as §6, §7

The subject of series [4] is human acute granulocytic leukemia Kasumi-1 cells xenograft. As to the kind of experiment: In vivo pharmacodynamic study, subcutaneous xenograft tumor model. Also noted: species or system CB17 SCID mice. The conditions noted are these: for Tumor Weight: QD × 18, Kasumi-1 tumor-bearing mice; for Tumor Growth Inhibition rate (TGI): QD × 18, by tumor weight. On the procedure:
(§8) Test sample: crystal form I prepared in Example 17 (crystal form I of compound 29)
Animals, Cells, Reagents & Instruments: Kasumi-1 cells, derived from ATCC.
CB17 SCID mice, 6-8 weeks, female, available from Shanghai Lingchang Biotechnology Co., Ltd.
Kasumi-1 cells were cultured in vitro in a single layer, and culture conditions were as follows: RPMI1640 medium supplemented with 10% heat-inactivated fetal bovine serum and 1% penicillin-streptomycin double antibody, 37° C., and 5% CO2. Passage was achieved two to three times a week. When the cells were in the exponential growth phase, the cells were harvested, counted, and inoculated.
0.2 mL of cell suspension containing about 1×10^7 Kasumi-1 cells (cell suspended in 1:1 base RPMI 1640 medium and nutrient gel) was subcutaneously inoculated into the right back of female CB17 SCID mice. Grouping administration was started when the average tumor volume reached 100-150 mm^3. Grouping method: Animals were weighed prior to administration and tumor volume was measured. Grouping was performed according to the tumor volume, with 8 mice per group.
Health and death of the animals were monitored daily. Body weight was measured twice a week, and samples were collected after the last dose and the tumor weight was weighed.

A short description of series [5]: PK evaluation in beagle dogs. The class given is in vivo. On the procedure:
as §8
(1) Administration to animals: All animals were fasted for more than 12 h before administration, and fed at 4 h after the administration. […] Beagle dogs were given intravenously 1 mg/kg of crystal form I of compound 29 (prescription: 10% DMA+20% (30% Solutol)+70% saline) in a single dose, and blood was collected at 0 h before administration and 0.083, 0.25, 0.50, 1.0, 2.0, 4.0, 6.0, 8.0, 12 and 24 h after administration. Beagle dogs were given orally 2 mg/kg of crystal form I of compound 29 (Prescription: 10% DMA+20% (30% Solutol)+70% saline) in a single dose, and blood was collected at 0 h before administration and at 0.25, 0.50, 1.0, 2.0, 4.0, 6.0, 8.0, 12, and 24 h after administration, and 200 μL blood was taken through a small saphenous vein, and placed in a dried EDTA-K2 test tube. (2) Preparation of plasma: The whole blood sample was separated by low-speed centrifugation (1800 g, 5 min, 4° C.) (the whole blood was collected and placed in an ice bath, and plasma separation should be completed within 30 min) to give plasma, and the separated plasma was stored in a refrigerator at […] for analysis.
The sample to be tested (−80° C.) was taken from the refrigerator, thawed naturally at room temperature and vortexed for 5 min; 20 μL of plasma sample was accurately aspirated into a 1.5 mL centrifuge tube; added with 200 μL of internal standard working solution at a concentration of 50 ng/mL, and mixed well; after vortexed for 5 min, the mixture was centrifuged for 5 min (12000 rpm); 50 μL of supernatant was accurately aspirated into 96-well plates pre-filled with 150 μL/well of water; vortexed for 5 min, LC-MS/MS determination was performed in an injection volume of 15 μL.
The concentration of test sample was output using Analyst 1.6.1 from AB SCIEX.

[6] abbreviates: intravenously 1 mg/kg single dose.

Structures are written as SMILES. Where two headings read alike, the source gives them in different places.

Aurora B, sequence (Q96GD4 whole entry): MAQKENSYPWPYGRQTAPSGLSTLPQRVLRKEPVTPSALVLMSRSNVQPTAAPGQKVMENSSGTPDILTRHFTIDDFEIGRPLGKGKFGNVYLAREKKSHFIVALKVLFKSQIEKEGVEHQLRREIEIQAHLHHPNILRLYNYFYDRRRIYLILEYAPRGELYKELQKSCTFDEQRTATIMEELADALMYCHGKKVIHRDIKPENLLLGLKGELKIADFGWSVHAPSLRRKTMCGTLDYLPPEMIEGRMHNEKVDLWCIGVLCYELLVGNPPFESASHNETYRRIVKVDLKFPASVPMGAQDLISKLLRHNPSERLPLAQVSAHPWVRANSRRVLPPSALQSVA
KDR(VEGFR2), sequence (P35968 20-1356): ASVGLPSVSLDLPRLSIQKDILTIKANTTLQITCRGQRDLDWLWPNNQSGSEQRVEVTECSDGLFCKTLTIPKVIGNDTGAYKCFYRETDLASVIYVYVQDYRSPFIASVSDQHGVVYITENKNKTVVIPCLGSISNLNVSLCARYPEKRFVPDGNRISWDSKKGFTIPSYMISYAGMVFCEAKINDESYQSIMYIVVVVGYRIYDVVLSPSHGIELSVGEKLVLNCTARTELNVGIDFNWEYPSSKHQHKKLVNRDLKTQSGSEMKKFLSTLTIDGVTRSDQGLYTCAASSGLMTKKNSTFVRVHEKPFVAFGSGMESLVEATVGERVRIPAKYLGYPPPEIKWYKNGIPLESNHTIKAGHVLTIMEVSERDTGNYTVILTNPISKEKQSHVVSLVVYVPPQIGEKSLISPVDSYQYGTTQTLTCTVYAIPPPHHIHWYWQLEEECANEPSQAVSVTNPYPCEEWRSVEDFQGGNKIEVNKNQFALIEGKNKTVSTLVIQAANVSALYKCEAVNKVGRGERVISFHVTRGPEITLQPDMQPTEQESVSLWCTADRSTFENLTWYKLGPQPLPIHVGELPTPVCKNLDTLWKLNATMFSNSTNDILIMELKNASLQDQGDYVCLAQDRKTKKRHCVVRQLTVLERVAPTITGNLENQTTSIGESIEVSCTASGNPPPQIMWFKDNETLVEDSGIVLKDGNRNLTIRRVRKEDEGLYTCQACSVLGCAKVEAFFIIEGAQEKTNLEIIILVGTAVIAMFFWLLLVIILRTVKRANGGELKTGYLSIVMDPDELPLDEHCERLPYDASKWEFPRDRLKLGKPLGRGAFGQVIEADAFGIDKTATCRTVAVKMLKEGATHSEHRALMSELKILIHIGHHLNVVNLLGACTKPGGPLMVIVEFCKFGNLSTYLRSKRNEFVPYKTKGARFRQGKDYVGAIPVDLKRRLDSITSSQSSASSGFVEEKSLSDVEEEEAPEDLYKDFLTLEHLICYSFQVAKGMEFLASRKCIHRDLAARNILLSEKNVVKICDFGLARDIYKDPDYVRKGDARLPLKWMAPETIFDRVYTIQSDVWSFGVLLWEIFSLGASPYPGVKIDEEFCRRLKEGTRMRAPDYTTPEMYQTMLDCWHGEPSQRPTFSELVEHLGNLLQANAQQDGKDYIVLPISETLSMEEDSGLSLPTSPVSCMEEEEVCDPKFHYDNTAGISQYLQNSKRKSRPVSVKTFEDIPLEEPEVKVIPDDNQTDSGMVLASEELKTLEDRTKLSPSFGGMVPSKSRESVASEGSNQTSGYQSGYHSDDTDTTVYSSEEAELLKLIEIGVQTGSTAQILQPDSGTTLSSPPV

In the case of `Cc1[nH]nc2c1N=C(c1ccccc1Cl)c1cnc(N3C[C@@H](C)N(C)[C@@H](C)C3)cc1N2` [Compound 41], the IC50 is 15 nM on Aurora A, 24 nM at Aurora B and 7.9 nM at KDR(VEGFR2).
Turning to `Cc1[nH]nc2c1N=C(c1ccccc1Cl)c1cnc(N3CCNCC3)cc1N2` [Compound 37], the IC50 turned out to be 5.4 nM on Aurora A, 8.8 nM at Aurora B and 1.7 nM at KDR(VEGFR2).
For `Cc1[nH]nc2c1N=C(c1ccccc1Cl)c1cnc(CN3CCNCC3)cc1N2` [Compound 38], the IC50 at Aurora A turned out to be 18 nM; at Aurora B it was 16 nM; at KDR(VEGFR2), 4.2 nM.
On to `Cc1[nH]nc2c1N=C(c1ccccc1Cl)c1cnc(N3CCN(C4CC4)CC3)cc1N2` [Compound 44], for which the IC50 at Aurora A turned out to be 0.82 nM; on Aurora B it was 6.8 nM; on KDR(VEGFR2), 1.5 nM; in [1] it was 249 nM; in series [2], 101 nM; in the series with A549 Lung cancer cells it was 358 nM. Moreover, the IC50 in series [3] is 984 nM.
As for `Cc1[nH]nc2c1N=C(c1ccccc1Cl)c1cnc(N3CCOCC3)cc1N2` [Crystal form I of compound 29, 4-(5-(2-chlorophenyl)-3-methyl-2,10-dihydropyrazolo[4,3-b]pyrido[4,3-e][1,4]diazepin-8-yl) morpholine], in series [4] (5 mg/kg po), the “Tumor Weight” value worked out at 0.435 ± 0.091 g and the “Tumor Growth Inhibition rate (TGI)” value is on record as 69.58%. In [4] (15 mg/kg po), the “Tumor Weight” value is 0.100 ± 0.014 g and the “Tumor Growth Inhibition rate (TGI)” value turned out to be 92.98%. The “inhibitory effect on the Kasumi-1 cell xenograft model” value in series [4] (result in words) is “significant inhibitory effect”. Moreover, in series [5] (dog, plasma, iv, intravenously 1 mg/kg single dose, read-out: AUCinf iv), the AUC(0-inf) came out at 4650 ng·h/mL. For the same compound, the Tmax in series [5] (dog, plasma, po, orally 2 mg/kg single dose) stood at 2 h. In series [5] (dog, plasma, po, orally 2 mg/kg single dose, read-out: AUCinf po), the AUC(0-inf) was 8600 ng·h/mL. In series [5] (setting [6]), this compound showed a Cl_obs iv of 3.67 mL/min/kg, a Vz_obs iv of 2.35 L/kg and a tz1/2 iv of 7.64 h. In [5] (orally 2 mg/kg single dose), this compound registered a tZl1/2po of 6.87 h.
In the case of `Cc1[nH]nc2c1N=C(c1ccccc1Cl)c1cnc(N3CCN(C)[C@H](C)C3)cc1N2` [Compound 42], the IC50 at Aurora A stood at 3 nM; on Aurora B it was 1.7 nM; on KDR(VEGFR2), 9.7 nM.
As to `Cc1[nH]nc2c1N=C(c1ccccc1Cl)c1cnc(N3CCN(C)C(=O)C3)cc1N2` [Compound 43], the IC50 on Aurora A came to 2.1 nM; on Aurora B it was 5.8 nM; on KDR(VEGFR2), 1.8 nM.
For `Cc1[nH]nc2c1N=C(c1ccccc1Cl)c1cnc(N3CCO[C@H](C)C3)cc1N2` (stereo in doubt) [Compound 40], the IC50 at Aurora A came out at 2.7 nM; at Aurora B it was 11 nM; at KDR(VEGFR2), 2.9 nM.
Turning to `Cc1[nH]nc2c1N=C(c1ccccc1Cl)c1cnc(N3CC4COCC4C3)cc1N2` (stereo not drawn) [Compound 46], the IC50 at Aurora A came out at 0.41 nM; at Aurora B, 3.1 nM; at KDR(VEGFR2), 0.53 nM; in series [1], 83 nM; in series [2], 48 nM; with A549 Lung cancer cells it was 211 nM. For the same compound, the IC50 in series [3] turned out to be 319 nM.
On to `Cc1[nH]nc2c1N=C(c1ccccc1Cl)c1cnc(N3CC4CC3CO4)cc1N2` (stereo not drawn) [Compound 45], for which the half-inhibitory concentration (IC50) at Aurora A stood at 1 nM; on Aurora B it was 4.7 nM; on KDR(VEGFR2), 0.3 nM; in series [1], 186 nM; in series [2] it was 171 nM; with A549 Lung cancer cells it was 507 nM. For the same compound, in series [3], the IC50 stood at 491 nM.
On to `Cc1[nH]nc2c1N=C(c1ccccc1Cl)c1cnc(N3CC4(COC4)C3)cc1N2` [Compound 48], for which the IC50 on Aurora A is 1.4 nM; on Aurora B, 5.2 nM; on KDR(VEGFR2), 1.8 nM.

For orientation: IC50 means the concentration that gives 50% inhibition. A word on the Tmax: it is the time from dosing to the highest level.
